From paper PMC12224983, “Isoquercitrin Alleviates Diabetic Nephropathy by Inhibiting STAT3 Phosphorylation and Dimerization” (Advanced Science, 2025)

Molecular target: T1, signal transducer and activator of transcription 3 (STAT3) (Homo sapiens, UniProt P40763)
T1 construct: Wild-type STAT3 proteins
Assay: SPR (BIAcore T200, STAT3 immobilized on CM5 chip); supported by pull-down, proteome microarray and CETSA
Format: binding

T1 sequence (P40763 2-770): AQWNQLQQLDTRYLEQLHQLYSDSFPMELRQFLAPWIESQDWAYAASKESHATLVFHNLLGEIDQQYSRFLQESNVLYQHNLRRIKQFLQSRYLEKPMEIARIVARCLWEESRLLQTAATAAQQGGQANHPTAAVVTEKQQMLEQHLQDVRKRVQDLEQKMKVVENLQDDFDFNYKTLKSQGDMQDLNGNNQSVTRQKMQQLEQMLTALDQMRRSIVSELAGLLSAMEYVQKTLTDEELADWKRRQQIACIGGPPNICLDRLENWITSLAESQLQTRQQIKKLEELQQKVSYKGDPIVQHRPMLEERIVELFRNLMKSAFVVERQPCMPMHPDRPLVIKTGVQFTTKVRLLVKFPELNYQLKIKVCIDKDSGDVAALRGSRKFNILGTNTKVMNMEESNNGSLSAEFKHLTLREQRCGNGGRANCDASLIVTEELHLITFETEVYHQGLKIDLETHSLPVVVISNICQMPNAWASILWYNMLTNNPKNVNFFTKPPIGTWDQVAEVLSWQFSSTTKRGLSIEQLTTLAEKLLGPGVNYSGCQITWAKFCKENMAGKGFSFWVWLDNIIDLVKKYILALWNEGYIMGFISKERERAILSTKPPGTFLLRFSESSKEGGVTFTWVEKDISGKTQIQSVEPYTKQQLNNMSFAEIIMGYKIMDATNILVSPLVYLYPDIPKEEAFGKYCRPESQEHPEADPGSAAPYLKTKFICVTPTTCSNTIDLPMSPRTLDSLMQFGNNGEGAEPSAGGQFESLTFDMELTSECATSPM

## O=c1c(O[C@@H]2O[C@H](CO)[C@@H](O)[C@H](O)[C@H]2O)c(-c2ccc(O)c(O)c2)oc2cc(O)cc(O)c12 [Isoquercitrin]
  Kd: 2860 nM
